Common to all, as to assay: Kinase selectivity, DiscoverX scanMAX Kinase assay panel (% control)
Format in all cases: binding

For assay [1], the target named is T1, kinases of the scanMAX Kinase assay panel (Homo sapiens, UniProt P54760).
T1 construct: purchased DiscoverX Co. (contract measurement) scanMAX Kinase assay panel
T1 sequence (P54760 16-987): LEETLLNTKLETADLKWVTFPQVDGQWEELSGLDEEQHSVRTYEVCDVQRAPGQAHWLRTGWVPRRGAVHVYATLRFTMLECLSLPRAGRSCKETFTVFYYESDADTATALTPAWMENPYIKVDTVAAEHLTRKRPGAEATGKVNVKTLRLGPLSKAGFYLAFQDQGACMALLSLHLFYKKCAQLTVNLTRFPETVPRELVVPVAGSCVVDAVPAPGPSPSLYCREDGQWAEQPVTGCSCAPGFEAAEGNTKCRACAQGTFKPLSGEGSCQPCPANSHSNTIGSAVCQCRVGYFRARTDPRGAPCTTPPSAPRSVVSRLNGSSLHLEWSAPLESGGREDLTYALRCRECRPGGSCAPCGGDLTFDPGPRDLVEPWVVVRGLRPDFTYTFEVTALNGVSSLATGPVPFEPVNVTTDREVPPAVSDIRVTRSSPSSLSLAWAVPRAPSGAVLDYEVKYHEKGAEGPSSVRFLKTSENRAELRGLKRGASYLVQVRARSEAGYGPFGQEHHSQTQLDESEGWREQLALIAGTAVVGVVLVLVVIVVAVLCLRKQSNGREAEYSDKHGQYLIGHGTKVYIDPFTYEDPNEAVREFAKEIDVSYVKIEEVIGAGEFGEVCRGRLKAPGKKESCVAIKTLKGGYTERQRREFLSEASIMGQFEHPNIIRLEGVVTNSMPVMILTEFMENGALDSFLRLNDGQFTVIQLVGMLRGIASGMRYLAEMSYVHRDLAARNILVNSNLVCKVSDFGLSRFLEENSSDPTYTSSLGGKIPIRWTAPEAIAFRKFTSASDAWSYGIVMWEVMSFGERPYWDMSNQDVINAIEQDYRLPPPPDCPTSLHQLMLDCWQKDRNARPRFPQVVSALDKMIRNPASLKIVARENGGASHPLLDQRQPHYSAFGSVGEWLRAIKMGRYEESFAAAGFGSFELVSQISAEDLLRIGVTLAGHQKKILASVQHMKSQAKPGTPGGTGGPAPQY
As to conditions: EPHB4; 1 uM. The method in brief:
(§1)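 Binding-panel profiling at one concentration, 1 uM in DMSO; values are % of DMSO control after subtracting the positive-control floor. Less than 35% means activity on that kinase.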

In assay [2] the target is T2, kinases of the scanMAX Kinase assay panel (Homo sapiens, UniProt Q8TF76).
T2 construct: purchased DiscoverX Co. (contract measurement) scanMAX Kinase assay panel
T2 sequence (Q8TF76 1-798): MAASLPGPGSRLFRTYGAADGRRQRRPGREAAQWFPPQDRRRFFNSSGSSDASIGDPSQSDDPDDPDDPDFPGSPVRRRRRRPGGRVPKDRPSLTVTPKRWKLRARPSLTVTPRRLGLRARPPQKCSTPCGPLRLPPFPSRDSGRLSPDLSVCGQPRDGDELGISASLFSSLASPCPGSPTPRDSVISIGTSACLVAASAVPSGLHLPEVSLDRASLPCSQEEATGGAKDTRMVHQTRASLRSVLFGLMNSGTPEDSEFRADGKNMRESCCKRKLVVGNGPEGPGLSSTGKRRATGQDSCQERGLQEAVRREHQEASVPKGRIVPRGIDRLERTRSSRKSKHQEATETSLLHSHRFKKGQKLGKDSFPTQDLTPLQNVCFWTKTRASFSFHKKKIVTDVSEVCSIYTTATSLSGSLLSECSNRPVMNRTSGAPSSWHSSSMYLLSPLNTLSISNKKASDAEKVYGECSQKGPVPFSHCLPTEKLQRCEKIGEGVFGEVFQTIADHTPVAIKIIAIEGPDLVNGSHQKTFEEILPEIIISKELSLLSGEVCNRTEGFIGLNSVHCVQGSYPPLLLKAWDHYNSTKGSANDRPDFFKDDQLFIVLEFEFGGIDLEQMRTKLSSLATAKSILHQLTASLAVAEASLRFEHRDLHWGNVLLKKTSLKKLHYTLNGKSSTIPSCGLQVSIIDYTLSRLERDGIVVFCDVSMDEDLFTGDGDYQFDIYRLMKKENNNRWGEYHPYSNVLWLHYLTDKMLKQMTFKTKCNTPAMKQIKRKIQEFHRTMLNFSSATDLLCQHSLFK
Conditions: HASPIN; 1 uM. The method in brief: as §1

The target in assay [3] is T3, kinases of the scanMAX Kinase assay panel (Homo sapiens, UniProt P08069).
T3 construct: purchased DiscoverX Co. (contract measurement) scanMAX Kinase assay panel
T3 sequence (P08069 31-1367): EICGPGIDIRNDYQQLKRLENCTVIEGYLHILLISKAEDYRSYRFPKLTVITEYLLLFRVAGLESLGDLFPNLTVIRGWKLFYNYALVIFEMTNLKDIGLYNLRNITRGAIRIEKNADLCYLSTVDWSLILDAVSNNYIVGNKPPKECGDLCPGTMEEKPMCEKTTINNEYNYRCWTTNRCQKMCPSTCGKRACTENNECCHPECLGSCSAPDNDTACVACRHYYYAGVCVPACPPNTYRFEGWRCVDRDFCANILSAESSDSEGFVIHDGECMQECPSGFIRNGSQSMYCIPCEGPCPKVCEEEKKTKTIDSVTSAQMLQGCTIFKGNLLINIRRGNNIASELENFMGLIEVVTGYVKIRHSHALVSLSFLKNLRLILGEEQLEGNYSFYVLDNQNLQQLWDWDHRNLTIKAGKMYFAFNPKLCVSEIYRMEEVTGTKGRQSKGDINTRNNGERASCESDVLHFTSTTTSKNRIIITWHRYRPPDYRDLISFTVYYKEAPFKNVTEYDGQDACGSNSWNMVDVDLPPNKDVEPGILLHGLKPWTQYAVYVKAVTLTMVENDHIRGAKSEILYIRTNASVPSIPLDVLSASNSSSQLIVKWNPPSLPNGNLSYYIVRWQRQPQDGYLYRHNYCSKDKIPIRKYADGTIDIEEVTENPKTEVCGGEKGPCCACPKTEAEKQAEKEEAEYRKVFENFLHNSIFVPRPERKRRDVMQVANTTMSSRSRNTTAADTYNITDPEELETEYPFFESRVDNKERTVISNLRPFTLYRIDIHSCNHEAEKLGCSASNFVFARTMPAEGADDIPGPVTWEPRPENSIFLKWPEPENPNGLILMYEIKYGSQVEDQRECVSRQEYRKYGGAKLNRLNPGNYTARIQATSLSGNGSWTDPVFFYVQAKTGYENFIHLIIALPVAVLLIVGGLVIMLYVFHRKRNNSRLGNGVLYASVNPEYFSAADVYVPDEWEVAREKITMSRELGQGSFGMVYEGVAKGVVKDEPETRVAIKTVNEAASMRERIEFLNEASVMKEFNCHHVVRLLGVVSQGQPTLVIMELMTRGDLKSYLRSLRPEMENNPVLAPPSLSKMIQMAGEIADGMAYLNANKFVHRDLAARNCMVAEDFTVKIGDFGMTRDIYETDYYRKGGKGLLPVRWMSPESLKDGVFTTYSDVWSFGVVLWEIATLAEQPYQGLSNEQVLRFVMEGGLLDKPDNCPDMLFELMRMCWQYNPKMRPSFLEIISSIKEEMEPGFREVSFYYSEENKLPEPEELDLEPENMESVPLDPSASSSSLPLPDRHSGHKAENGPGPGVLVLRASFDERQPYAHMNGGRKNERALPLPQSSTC
Conditions: IGF1R; 1 uM. In a few lines: as §1

In assay [4] the target is T4, kinases of the scanMAX Kinase assay panel (Homo sapiens, UniProt Q8N4C8).
T4 construct: purchased DiscoverX Co. (contract measurement) scanMAX Kinase assay panel
T4 sequence (Q8N4C8 whole entry): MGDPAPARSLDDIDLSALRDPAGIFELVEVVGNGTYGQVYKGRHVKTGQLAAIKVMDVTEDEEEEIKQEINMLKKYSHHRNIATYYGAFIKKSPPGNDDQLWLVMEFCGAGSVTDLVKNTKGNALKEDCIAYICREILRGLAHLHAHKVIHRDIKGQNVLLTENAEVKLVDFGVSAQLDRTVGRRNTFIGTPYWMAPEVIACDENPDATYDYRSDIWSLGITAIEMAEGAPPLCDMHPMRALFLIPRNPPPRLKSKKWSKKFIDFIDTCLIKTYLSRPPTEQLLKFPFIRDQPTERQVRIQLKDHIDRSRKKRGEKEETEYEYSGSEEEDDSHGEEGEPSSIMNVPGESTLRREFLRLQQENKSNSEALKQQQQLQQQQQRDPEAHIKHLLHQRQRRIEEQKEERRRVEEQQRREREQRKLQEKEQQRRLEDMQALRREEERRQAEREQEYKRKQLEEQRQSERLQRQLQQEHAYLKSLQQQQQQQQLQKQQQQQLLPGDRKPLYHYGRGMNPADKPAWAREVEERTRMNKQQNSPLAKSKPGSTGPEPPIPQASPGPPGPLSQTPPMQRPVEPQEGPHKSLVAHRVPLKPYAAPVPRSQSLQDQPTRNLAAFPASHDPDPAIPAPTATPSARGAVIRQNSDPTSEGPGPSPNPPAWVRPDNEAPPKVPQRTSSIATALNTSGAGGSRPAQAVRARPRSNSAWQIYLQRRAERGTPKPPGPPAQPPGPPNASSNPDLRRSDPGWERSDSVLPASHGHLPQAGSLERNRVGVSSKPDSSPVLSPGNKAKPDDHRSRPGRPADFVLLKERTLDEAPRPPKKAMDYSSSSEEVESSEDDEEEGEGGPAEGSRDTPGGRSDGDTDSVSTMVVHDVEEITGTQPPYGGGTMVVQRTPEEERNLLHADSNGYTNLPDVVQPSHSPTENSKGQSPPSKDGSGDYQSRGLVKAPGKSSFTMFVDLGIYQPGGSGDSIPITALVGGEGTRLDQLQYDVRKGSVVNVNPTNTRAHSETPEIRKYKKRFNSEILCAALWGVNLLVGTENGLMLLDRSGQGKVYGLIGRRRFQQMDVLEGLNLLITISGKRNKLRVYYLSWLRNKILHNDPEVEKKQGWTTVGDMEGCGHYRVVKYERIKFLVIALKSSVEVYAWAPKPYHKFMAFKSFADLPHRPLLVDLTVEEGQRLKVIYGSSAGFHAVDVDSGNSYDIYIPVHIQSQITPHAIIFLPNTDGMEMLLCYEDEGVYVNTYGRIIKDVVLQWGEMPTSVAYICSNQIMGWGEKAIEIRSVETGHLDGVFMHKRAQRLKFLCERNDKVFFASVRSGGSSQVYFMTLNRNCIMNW
As to conditions: MINK; 1 uM. The method in brief: as §1

Assay [5] has as its target T5, kinases of the scanMAX Kinase assay panel (Homo sapiens, UniProt P54764).
T5 construct: purchased DiscoverX Co. (contract measurement) scanMAX Kinase assay panel
Conditions: EPHA4; 1 uM. In a few lines:
as §1

In assay [6] the target is T6, kinases of the scanMAX Kinase assay panel (Homo sapiens, UniProt Q8IW41).
T6 construct: purchased DiscoverX Co. (contract measurement) scanMAX Kinase assay panel
T6 sequence (Q8IW41 1-473): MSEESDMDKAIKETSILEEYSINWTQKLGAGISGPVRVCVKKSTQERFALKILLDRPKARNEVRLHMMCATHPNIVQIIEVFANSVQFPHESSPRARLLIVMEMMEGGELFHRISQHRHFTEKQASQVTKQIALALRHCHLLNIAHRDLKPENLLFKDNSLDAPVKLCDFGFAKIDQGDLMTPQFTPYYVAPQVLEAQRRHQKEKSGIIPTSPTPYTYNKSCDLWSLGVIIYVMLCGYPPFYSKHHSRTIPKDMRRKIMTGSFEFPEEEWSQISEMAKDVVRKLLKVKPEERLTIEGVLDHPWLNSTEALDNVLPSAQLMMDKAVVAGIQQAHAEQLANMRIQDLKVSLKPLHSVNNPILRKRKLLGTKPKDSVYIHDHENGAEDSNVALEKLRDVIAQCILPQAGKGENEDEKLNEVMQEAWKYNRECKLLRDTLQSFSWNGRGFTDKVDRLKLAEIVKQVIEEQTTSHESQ
As to conditions: MAPKAPK5; 1 uM. The method in brief:
as §1

Assay [7] concerns the target T7, kinases of the scanMAX Kinase assay panel (Homo sapiens, UniProt Q8IVW4).
T7 construct: purchased DiscoverX Co. (contract measurement) scanMAX Kinase assay panel
As to conditions: CDKL3; 1 uM. In a few lines: as §1

T5 sequence (P54764 20-986): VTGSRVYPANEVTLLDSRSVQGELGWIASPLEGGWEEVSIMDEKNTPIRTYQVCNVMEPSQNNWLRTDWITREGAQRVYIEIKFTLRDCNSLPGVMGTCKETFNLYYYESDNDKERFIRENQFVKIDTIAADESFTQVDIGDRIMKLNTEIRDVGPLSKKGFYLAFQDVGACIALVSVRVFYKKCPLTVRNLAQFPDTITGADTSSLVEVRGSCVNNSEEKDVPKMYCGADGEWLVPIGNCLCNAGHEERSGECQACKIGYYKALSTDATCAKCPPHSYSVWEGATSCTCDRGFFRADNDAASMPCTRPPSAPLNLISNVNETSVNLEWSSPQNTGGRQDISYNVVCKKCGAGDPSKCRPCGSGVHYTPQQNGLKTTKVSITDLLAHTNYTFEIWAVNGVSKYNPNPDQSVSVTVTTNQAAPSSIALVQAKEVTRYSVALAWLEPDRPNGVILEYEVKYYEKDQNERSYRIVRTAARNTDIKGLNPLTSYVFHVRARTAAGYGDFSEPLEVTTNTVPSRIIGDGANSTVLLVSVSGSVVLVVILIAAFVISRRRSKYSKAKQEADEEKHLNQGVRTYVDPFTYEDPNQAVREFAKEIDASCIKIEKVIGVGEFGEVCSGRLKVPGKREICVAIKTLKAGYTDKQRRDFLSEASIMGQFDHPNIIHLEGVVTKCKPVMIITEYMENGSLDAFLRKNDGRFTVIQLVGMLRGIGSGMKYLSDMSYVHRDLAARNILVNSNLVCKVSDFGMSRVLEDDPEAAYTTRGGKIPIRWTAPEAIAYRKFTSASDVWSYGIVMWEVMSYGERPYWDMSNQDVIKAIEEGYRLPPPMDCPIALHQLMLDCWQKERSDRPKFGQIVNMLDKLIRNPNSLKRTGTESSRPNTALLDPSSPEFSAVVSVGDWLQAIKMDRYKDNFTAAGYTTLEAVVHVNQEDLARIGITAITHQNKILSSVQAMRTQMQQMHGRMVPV
T7 sequence (Q8IVW4 whole entry): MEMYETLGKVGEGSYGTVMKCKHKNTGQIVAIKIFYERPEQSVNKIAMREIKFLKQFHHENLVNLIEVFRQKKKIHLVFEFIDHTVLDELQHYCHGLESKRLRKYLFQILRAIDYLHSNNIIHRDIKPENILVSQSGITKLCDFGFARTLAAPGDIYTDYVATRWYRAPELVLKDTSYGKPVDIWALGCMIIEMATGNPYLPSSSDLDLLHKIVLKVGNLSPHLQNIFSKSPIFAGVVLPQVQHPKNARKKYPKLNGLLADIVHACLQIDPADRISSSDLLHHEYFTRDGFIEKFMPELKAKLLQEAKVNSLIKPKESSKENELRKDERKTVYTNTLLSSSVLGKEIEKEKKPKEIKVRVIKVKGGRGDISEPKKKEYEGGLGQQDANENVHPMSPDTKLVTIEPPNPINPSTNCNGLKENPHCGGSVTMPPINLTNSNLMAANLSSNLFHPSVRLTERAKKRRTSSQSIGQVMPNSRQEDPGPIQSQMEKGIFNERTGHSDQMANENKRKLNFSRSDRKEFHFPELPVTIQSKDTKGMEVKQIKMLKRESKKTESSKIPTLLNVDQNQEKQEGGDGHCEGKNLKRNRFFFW

In the case of `CNc1nc(Nc2ccc(C(=O)N3CCOCC3)cc2OC)nc2[nH]cc(C#N)c12` [Example 1, 2-((2-methoxy-4-(morpholine-4-carbonyl)phenyl)amino)-4-(methylamino)-7H-pyrrolo[2,3-d]pyrimidine-5-carbonitrile], the remaining binding at 1 µM in assay [1] was 95%; in assay [2], 63%; in assay [3], 82%; in assay [4] it was 50%; in assay [5], 93%; in assay [6] it was 16%. In addition, the remaining binding at 1 µM in assay [7] is 93%.

Turning to `CC1(Nc2nc(Nc3cnn([C@H]4CCN(C5COC5)C[C@@H]4F)c3Cl)nc3[nH]cc(C#N)c23)CC1` [Example 52, 2-((5-chloro-1-((3S,4S)-3-fluoro-1-(oxetane-3-yl)piperidine-4-yl)-1H-pyrazole-4-yl)amino)((1-methylcyclopropyl)amino)-7H-pyrrolo[2,3-d]pyrimidine-5-carbonitrile], the remaining binding at 1 µM in assay [1] was 48%; in assay [2] it was 100%; in assay [3], 19%; in assay [4], 6.4%; in assay [5], 75%; in assay [6], 72%. Also, in assay [7], the remaining binding at 1 µM was 100%.

Take `CCNc1nc(Nc2ccc(C(=O)N3CCC(N4CCOCC4)CC3)cc2OC)nc2[nH]cc(C(F)(F)F)c12` [Example 104, (4-((4-(ethylamino)-5-(trifluoromethyl)-7H-pyrrolo[2,3-d]pyrimidine-2-yl)amino)-3-methoxyphenyl)(4-morpholinopiperidine-1-yl)methanone]: the remaining binding at 1 µM in assay [1] worked out at 100%; in assay [2], 100%; in assay [3], 12%; in assay [4] it was 91%; in assay [5], 100%; in assay [6] it was 51%. Besides, the remaining binding at 1 µM in assay [7] is 100%.

The values above are taken from patent US11208412B2 (DAEGU-GYEONGBUK MEDICAL INNOVATION FOUNDATION, priority 2017, dated 2021).
